Where a name gives a salt, the structure may show the parent alone.
What was measured:
[1] = test system: Mouse myoblasts cell line C2C12; assay: Host cell cytotoxicity; format: cell-based; settings: mouse myoblasts vs T. cruzi, compounds tested up to 10 μM
cruzain = cruzain (Trypanosoma cruzi, UniProt P25779); assay: Cruzain enzymatic inhibition assay; format: biochemical; settings: for competitive behavior against cruzain: compound at 1 and 0.25 μM, substrate 0.156–10 μM
TbrCatL [2] = molecular target: T1, TbrCatL (Trypanosoma brucei rhodesiense, UniProt Q95PM0); format: biochemical, T. brucei
cruzain or TbrCatL = assay: Screening of the Krake et al. compound set against cruzain and TbrCatL; format: biochemical; settings: 100 μM
macrophages = settings: cited from earlier work
cathepsins S (human) = settings: human enzyme; cited from earlier work
cathepsins B (rat) = settings: rat enzyme; cited from earlier work
[3] = test system: T. cruzi Y strain parasites; settings: in vitro; cited from earlier work
TbrCatL [4] = molecular target: T1, TbrCatL; settings: read-out: IC50 TbrCatL; cited from earlier work

Sequence of cruzain (P25779 123-337 limits assumed): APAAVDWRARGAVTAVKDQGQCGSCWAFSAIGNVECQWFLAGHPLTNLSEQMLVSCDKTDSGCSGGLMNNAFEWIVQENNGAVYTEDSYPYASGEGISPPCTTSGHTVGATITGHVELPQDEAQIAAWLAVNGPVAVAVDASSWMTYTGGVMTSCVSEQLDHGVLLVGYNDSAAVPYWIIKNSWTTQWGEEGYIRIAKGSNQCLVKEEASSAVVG

NC(=S)N/N=C/c1ccc(-c2ccc(Br)cc2Cl)o1 [Compound 45, 2-((5-(4-bromo-2-chlorophenyl)furan-2-yl)methylene)hydrazine-1-carbothioamide]
SI: selectivity index determined as CC50/EC50 [1]: > 370 | competitive behavior against cruzain (cruzain): did not observe competitive behavior | effect of 0.1% Triton X-100 on IC50 against TbrCatL (TbrCatL [2]): reduced the compounds’ potencies

Clc1cc(Br)ccc1-c1ccc(CNCCN2CCOCC2)o1 [Compound 39, N-((5-(4-bromo-2-chlorophenyl)furan-2-yl)methyl)-2-morpholinoethan-1-amine dihydrochloride]
SI: selectivity index determined as CC50/EC50 [1]: > 17

O=C(Cn1ccnc1[N+](=O)[O-])NCc1ccccc1 [Benznidazole]
SI: selectivity index determined as CC50/EC50 [1]: > 9

CN(C)CCCNCc1ccc(-c2ccc(Cl)cc2Cl)o1 [Compound 9]
average inhibition against cruzain or TbrCatL (cruzain or TbrCatL): greater than 70%

N/C(S)=N/N=C/c1ccc(-c2ccc(Cl)cc2)o1 [Compound 44, 2-((5-(4-chlorophenyl)furan-2-yl)methylene)hydrazine-1-carbothioamide]
SI: selectivity index determined as CC50/EC50 [1]: > 18 | IC50 against cruzain relative to IC50 against TbrCatL (fold higher) (cruzain; Table 2 values): up to 25 fold | competitive behavior against cruzain (cruzain): did not observe competitive behavior | effect of 0.1% Triton X-100 on IC50 against TbrCatL (TbrCatL [2]): reduced the compounds’ potencies

Clc1cc(Br)ccc1-c1ccc(CNCC2CCNCC2)o1 [MB12, 1-(5-(4-bromo-2-chlorophenyl)furan-2-yl)-N-(piperidin-4-ylmethyl)methanamine]
cytotoxicity by lactate dehydrogenase release (macrophages): no significant cytotoxicity | inhibition of cathepsin S (cathepsins S (human)): did not inhibit | inhibition of cathepsin B (cathepsins B (rat)): did not inhibit | replication of T. cruzi Y strain parasites and release from macrophages [3]: decreased the replication | IC50 (TbrCatL [4]): 50 µM

CN(C)CCCNCc1ccc(-c2ccc(Br)cc2)o1 [Compound 12]
average inhibition against cruzain or TbrCatL (cruzain or TbrCatL): greater than 70%

— publication PMC13124246 (European journal of medicinal chemistry, 2022)
